From patent US8242118B2, “Arylsulfonamide derivatives for use as CCR3 antagonists in the treatment of inflammatory and immunological disorders” (Axikin Pharmaceuticals Inc., priority 2001, dated 2012)

Columns and labels:
[1] = target: T1, Human CCR3 (Homo sapiens, UniProt P51677); assay: Calcium mobilization assay, eotaxin-stimulated; assay type: cell-based; settings: human CCR3-transformed K562 cells, 10 nM eotaxin; compounds of about 40 to 90% purity; read-out: Activity grade Ca2+ (IC50 class)
T1 construct: The cloned CCR3 cDNA was constructed with pcDNA3 vector and transfected into a IC562 cell line; expressed in transfected cells
T1 sequence (P51677 1-355): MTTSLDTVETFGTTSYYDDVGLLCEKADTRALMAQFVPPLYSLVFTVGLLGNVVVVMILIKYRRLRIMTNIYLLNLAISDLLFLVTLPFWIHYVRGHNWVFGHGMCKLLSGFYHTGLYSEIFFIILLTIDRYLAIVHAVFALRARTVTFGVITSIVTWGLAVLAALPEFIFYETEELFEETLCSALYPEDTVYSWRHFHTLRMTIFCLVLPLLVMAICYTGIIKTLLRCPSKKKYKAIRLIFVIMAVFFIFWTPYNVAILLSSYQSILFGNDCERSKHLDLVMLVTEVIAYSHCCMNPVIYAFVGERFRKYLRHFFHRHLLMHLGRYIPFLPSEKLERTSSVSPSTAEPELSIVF
Protocol: • Human CCR3-transformed K562 cells were used. The cloned CCR3 cDNA was constructed with pcDNA3 vector and transfected into a IC562 cell line. The human CCR3-transformed K562 cells were maintained in RPMI-1640 (Cat.#22400-089, Life Technologies) supplemented with 10% FCS (Cat.#A-1115-L, Hyclone), 55 μM 2-mercaptoethanol (Cat.#21985-023, Life Technologies), 1 mM sodium pyruvate (Cat.#11360-070, Life Technologies), 100 units/ml of penicillin G and 100 μg/ml of streptomycin (Cat.#15140-122, Life Technologies), and 0.4 mg/ml of Geneticin (Cat.#10131-035, Life Technologies)(hereinafter called “culture medium”). Before the receptor binding assay, cells were pretreated with 5 mM sodium butyrate (Cat.#193-01522, Wako)-containing the culture medium (2×10^5 cells/ml) for 20-24 hours to increase the expression of CCR3. (2) Receptor Binding Assay (RBA) • Butyrate-pretreated cells, suspended in binding buffer (25 mM HEPES pH 7.6, 1 mM CaCl2, 5 mM MgCl2, 0.5% BSA, 0.1% NaN3) at a cell density of 2×10^6 cells/ml, were added into 60 μl/well in the 96-well round bottom polypropylene plate (Cat.#3365, Costar). Compounds, diluted with the binding buffer (4-times higher concentration of the final concentration), were added into 30 μl/well in the polypropylene plate. [^125I]-labeled human eotaxin (Cat.#IM290, Amersham Pharmacia Biotech), diluted with the binding buffer at the concentration of 0.4 nM (final concentration; 0.1 nM), was added into 30 μl/well in the polypropylene plate. Total 120 μl/well of binding reaction mixture (60 μl/well of cell suspension, 30 μl/well of compound solution, and 30 μl/well of [^125I]-labeled eotaxin) were incubated in the polypropylene plate for 1 hour at room temperature after the incubation, 100 μl/well of the reaction mixture was transferred to a filtration plate (Cat.#MAFB-N0B, Millipore), and washed with the washing buffer (25 mM HEPES pH 7.6, 1 mM CaCl2, 5 mM MgCl2, 0.5% BSA, 0.1% NaN3, 0.5 M NaCl) twice. The 96-well filtration plate was pretreated with 100 μl/well of 0.5% polyethylenimine (Cat.#P-3143, Sigma) for 2-4 hours at room temperature and washed with the washing buffer twice before use. The non-specific binding was determined by parallel incubation in the presence of 500 nM of non-labeled eotaxin (Cat.#23209, Genzyme Techne). The radioactivities remained on the filter were measured by liquid scintillation counter (TopCount™, Packard) after an addition of 45 μl/well of scintillant (Microscint20, Cat.#6013621, Packard). The inhibition percent at each concentration of compound was calculated, and IC50 values were determined from the inhibition curve. [Determination of IC50 Values of Compounds in Calcium Mobilization Assay] (IC50 Ca2+) (1) Cell • Human CCR3-transformed K562 cells were used. The human CCR3-transformed K562 cells were maintained in RPMI-1640 supplemented with 10% FCS, 55 μM 2-mercaptoethanol (Cat.#21985-023, Life Technologies), 1 mM sodium pyruvate, 100 units/ml of penicillin G and 100 μg/ml of streptomycin and 0.4 mg/ml of Geneticin. Before the calcium mobilization assay, cells were pretreated with 5 mM sodium butyrate-containing the culture medium (2×10^5 cells/ml) for 20-24 hours to increase the expression of CCR3. (2) Calcium Mobilization Assay • Butyrate-pretreated cells were loaded with Fluo-3AM (Cat.#F-1242, Molecular Probes) in loading buffer (Hanks' solution Cat.#05906 Nissui, 20 mM HEPES pH 7.6, 0.1% BSA, 1 mM probenecid Cat.#P-8761 Sigma, 1 μM Fluo-3AM, 0.01% pluronic F-127 Cat.#P-6866 Molecular Probes) at a cell density of 1×10^7 cells/ml. Then, cells were washed with calcium assay buffer (Hanks' solution Cat.#05906 Nissui, 20 mM HEPES pH 7.6, 0.1% BSA, 1 mM Probenecid Cat.#P-8761 Sigma). The cell suspension (3.3×10^6 cells/ml) was added into 60 μl/well in the 96-well clear bottom black plate (Cat.#3904, Costar). Compounds, diluted (5-times concentration of the final concentration) with the calcium assay buffer, were added into 20 μl/well in the plate 10 minutes before assay. […]

## COc1ccc(S(=O)(=O)N2CCNCC2)c(Oc2cc(C)cc(C)c2)c1.Cl [Example 1-49]
[1]
  IC50: < 1000 nM
other
  melting point: 125 °C

## COc1cc(Oc2cc(Cl)cc(Cl)c2)c(S(=O)(=O)N2CCNCC2)cc1[N+](=O)[O-].Cl [Example 1-50]
[1]
  IC50: < 1000 nM
other
  melting point: 181 °C

## Cc1cc(C)cc(Oc2cc(C)ccc2S(=O)(=O)N2CCNCC2)c1.Cl [Example 1-52]
[1]
  IC50: < 1000 nM
other
  melting point: 136 °C

## Cl.Cl.O=[N+]([O-])c1ccc(Oc2cncc(Cl)c2)c(S(=O)(=O)N2CCNCC2)c1 [Example 1-55]
[1]
  IC50: < 1000 nM
other
  melting point: 231 °C

## Cc1cc(C)cc(Oc2cccc(F)c2S(=O)(=O)N2CCNCC2)c1.Cl [Example 1-58]
[1]
  IC50: < 1000 nM
other
  melting point: 204 °C

## Cl.O=S(=O)(c1c(F)cccc1Oc1cc(Cl)cc(Cl)c1)N1CCNCC1 [Example 1-59]
[1]
  IC50: < 1000 nM
other
  melting point: 306 °C

## Cl.Nc1cccc(Oc2ccc([N+](=O)[O-])cc2S(=O)(=O)N2CCNCC2)c1 [Example 1-67]
[1]
  IC50: < 1000 nM
other
  melting point: 248 °C

## Cl.O=[N+]([O-])c1ccc(Oc2cccc(-c3ccccc3)c2)c(S(=O)(=O)N2CCNCC2)c1 [Example 1-68]
[1]
  IC50: < 1000 nM
other
  melting point: 99 °C

## Cc1cc(Oc2ccc([N+](=O)[O-])cc2S(=O)(=O)N2CCNCC2)cc(C)c1C.Cl [Example 1-69]
[1]
  IC50: < 1000 nM
other
  melting point: 248 °C

## Cc1ccc(Oc2ccc([N+](=O)[O-])cc2S(=O)(=O)N2CCNCC2)cn1.Cl [Example 1-70]
[1]
  IC50: < 1000 nM
other
  melting point: 237 °C

## Cc1cc(O)cc(Oc2ccc([N+](=O)[O-])cc2S(=O)(=O)N2CCNCC2)c1.Cl [Example 1-71]
[1]
  IC50: < 1000 nM
other
  melting point: 182 °C

## Cl.O=[N+]([O-])c1ccc(Oc2ccc3c(c2)CCCC3)c(S(=O)(=O)N2CCNCC2)c1 [Example 1-72]
[1]
  IC50: < 1000 nM
other
  melting point: 168 °C

## Cl.O=[N+]([O-])c1ccc(Oc2c(F)c(F)c(F)c(F)c2F)c(S(=O)(=O)N2CCNCC2)c1 [Example 1-73]
[1]
  IC50: < 1000 nM
other
  melting point: 297 °C

## Cc1ccc([N+](=O)[O-])c(Oc2ccc([N+](=O)[O-])cc2S(=O)(=O)N2CCNCC2)c1.Cl [Example 1-75]
[1]
  IC50: < 1000 nM
other
  melting point: 215 °C

## O=[N+]([O-])c1ccc(Oc2cc(Cl)cc(Cl)c2)c(S(=O)(=O)NC2CCNCC2)c1 [Example 1-78]
[1]
  IC50: < 1000 nM
other
  melting point: > 300 °C

## Cc1cc(C)cc(Oc2ccc([N+](=O)[O-])cc2S(=O)(=O)N2C(C)CNCC2C)c1.Cl (centres unmarked) [Example 1-94]
[1]
  IC50: < 1000 nM
other
  melting point: > 300 °C

## NCC1CCN(S(=O)(=O)c2cc([N+](=O)[O-])ccc2Oc2cc(Cl)cc(Cl)c2)CC1 [Example 1-97]
[1]
  IC50: < 1000 nM
other
  melting point: 148 to 151 °C

## O=C(O)CCN1CCN(S(=O)(=O)c2cc([N+](=O)[O-])ccc2Oc2cc(Cl)cc(Cl)c2)CC1 [Example 1-98]
[1]
  IC50: < 1000 nM
other
  melting point: 200 to 201 °C

## Cl.N[C@@H]1CCN(S(=O)(=O)c2cc([N+](=O)[O-])ccc2Oc2cc(Cl)cc(Cl)c2)C1 [Example 1-99]
[1]
  IC50: < 1000 nM
other
  melting point: 247 to 250 °C

## O=[N+]([O-])c1ccc(Sc2cc(Cl)cc(Cl)c2)c(S(=O)(=O)N2CCN(CC3CCCO3)CC2)c1 (centres unmarked) [Example 2-2]
[1]
  IC50: < 1000 nM
other
  melting point: 147 to 148 °C

## NCCNS(=O)(=O)c1cc([N+](=O)[O-])ccc1Sc1cc(Cl)cc(Cl)c1 [Example 2-5]
[1]
  IC50: < 1000 nM
other
  melting point: 189 °C

## CCOC(=O)CCN1CCN(S(=O)(=O)c2cc([N+](=O)[O-])ccc2Sc2cc(Cl)cc(Cl)c2)CC1 [Example 2-6]
[1]
  IC50: < 1000 nM
other
  melting point: 156 to 158 °C

## NCC1CCN(S(=O)(=O)c2cc([N+](=O)[O-])ccc2Sc2cc(Cl)cc(Cl)c2)CC1 [Example 2-7]
[1]
  IC50: < 1000 nM
other
  melting point: 147 to 149 °C

## Cl.O=[N+]([O-])c1ccc(Sc2cc(Cl)cc(Cl)c2)c(S(=O)(=O)NCC2CCNCC2)c1 [Example 2-8]
[1]
  IC50: < 1000 nM
other
  melting point: 205 to 207 °C

## COCCCN1CCN(S(=O)(=O)c2cc([N+](=O)[O-])ccc2Sc2cc(Cl)cc(Cl)c2)CC1 [Example 2-9]
[1]
  IC50: < 1000 nM
other
  melting point: 131 to 133 °C

## O=C(O)CCN1CCN(S(=O)(=O)c2cc([N+](=O)[O-])ccc2Sc2cc(Cl)cc(Cl)c2)CC1 [Example 2-10]
[1]
  IC50: < 1000 nM
other
  melting point: 209 to 211 °C

## Cc1cc(C)c(Sc2ccc([N+](=O)[O-])cc2S(=O)(=O)N2CCNCC2)c(C)c1.Cl [Example 2-15]
[1]
  IC50: 1000 to 10000 nM
other
  melting point: 274 °C

## Cc1cccc(Sc2ccc([N+](=O)[O-])cc2S(=O)(=O)N2CCNCC2)c1.Cl [Example 2-16]
[1]
  IC50: < 1000 nM
other
  melting point: 229 to 231 °C

## Cl.O=[N+]([O-])c1ccc(Sc2cccc(Cl)c2)c(S(=O)(=O)N2CCNCC2)c1 [Example 2-17]
[1]
  IC50: < 1000 nM
other
  melting point: 235 to 237 °C

## Cl.O=[N+]([O-])c1ccc(Sc2cc(Cl)cc(Cl)c2)c(S(=O)(=O)N2CCNCC2)c1 [Example 2-18]
[1]
  IC50: < 1000 nM
other
  melting point: 262 to 264 °C

## Cl.O=[N+]([O-])c1ccc(Sc2cccc(F)c2)c(S(=O)(=O)N2CCNCC2)c1 [Example 2-19]
[1]
  IC50: < 1000 nM
other
  melting point: 236 to 238 °C

## Cl.O=[N+]([O-])c1ccc(Sc2cc(C(F)(F)F)cc(C(F)(F)F)c2)c(S(=O)(=O)N2CCNCC2)c1 [Example 2-20]
[1]
  IC50: < 1000 nM
other
  melting point: 230 to 231 °C

## Cl.O=[N+]([O-])c1ccc(Sc2ccc3ccccc3c2)c(S(=O)(=O)N2CCNCC2)c1 [Example 2-21]
[1]
  IC50: 1000 to 10000 nM
other
  melting point: 273 °C

## Cc1cc(C)cc(Sc2ccc([N+](=O)[O-])cc2S(=O)(=O)N2CCN(CC3CCCO3)CC2)c1 (centres unmarked) [Example 4-28]
[1]
  IC50: < 1000 nM
other
  melting point: 143 to 144 °C

## CCN(CC)CCN1CCN(S(=O)(=O)c2cc([N+](=O)[O-])ccc2Oc2cc(Cl)cc(Cl)c2)CC1 [Example 4-30]
[1]
  IC50: < 1000 nM
other
  melting point: 98 to 99 °C

## CN(C)CCN1CCN(S(=O)(=O)c2cc([N+](=O)[O-])ccc2Oc2cc(Cl)cc(Cl)c2)CC1 [Example 4-31]
[1]
  IC50: < 1000 nM
other
  melting point: 138 to 140 °C

## CN1CCC(N2CCN(S(=O)(=O)c3cc([N+](=O)[O-])ccc3Oc3cc(Cl)cc(Cl)c3)CC2)CC1 [Example 4-32]
[1]
  IC50: < 1000 nM
other
  melting point: 167 to 169 °C
